The test system of assay [1] is ddY male mice. Nature of the assay: Forced swimming test in mice (antidepressant action). Format: in vivo. As for the experimental part:
When an antidepressant is administered in advance, the immobility time is shortened. The shortened immobility time is used as an index of an antidepressant action to be evaluated. This test method is widely used as an experimental animal model reflecting the clinical antidepressant effect.
In this test, the action of a combined use of 7-[4-(4-benzo[b]thiophen-4-yl-piperazin-1-yl)butoxy]-1H-quinolin-2-one (Compound (I)) and 9 kinds of antidepressants (serotonin reuptake inhibitors, or serotonin and norepinephrine reuptake inhibitors) on the immobility time was compared.
As the animal, ddY male mice (5 to 6-week-old) were used. Various antidepressants and Compound (I) or each vehicle were administered to the mice before the start of the test, the mice were placed in a cylindrical water tank, and immobility time during 2 min to 4 min after the start of swimming was measured by a behavior analysis apparatus with an infrared sensor (SCANET; Melquest Co., Ltd.).
Compound (I) was dissolved in 1% lactic acid-physiological saline, and various antidepressants were suspended or dissolved in 5% gum arabic-distilled water and used. Various antidepressants (fluoxetine (75 mg/kg), escitalopram (60 mg/kg), paroxetine (10 mg/kg), sertraline (15 mg/kg), venlafaxine (15 mg/kg), milnacipran (30 mg/kg), fluvoxamine (75 mg/kg)) were orally administered 60 min before the start of the test, duloxetine (20 mg/kg) and desvenlafaxine (20 mg/kg) were orally administered 30 min before the start of the test, and Compound (I) (0.001 or 0.003 mg/kg) was intraperitoneally administered 15 min before the start of the test.

Assay [2] deals with male ddY mice. Nature of the assay: Mouse marble-burying behavior test. In kind it is in vivo. Particulars: Compound (I) 0.1 mg/kg p.o., 30 min before test, n=10. From the text: Marble-burying behavior test is a behavioral evaluation test utilizing the behavior of a mouse to bury marbles on the bedding. Since this characteristic behavior of burying harmless glass marbles in the bedding reflects the anxiety state of the animal, and is apparently similar to a compulsive act of obsessive-compulsive disorder patient, which is repeated with the recognition of irrationality, it is particularly considered a model of obsessive-compulsive disorder^1),2),3),4).
As the animal, male ddY mice (6- to 7-week-old) were used. In the test, a plastic cage (26×32×17 cm) was filled with chips to about 5 cm deep in a soundproof room, and 25 marbles (diameter 15 mm, weight about 6 g) were placed thereon at equal distances. Each mouse was orally administered with Compound (I) simultaneously with an antianxiety drug or an antidepressant or a vehicle thereof, and 30 min later, each mouse was placed in a cage containing the marbles. 30 min later, the animal was taken out from the cage, and the number of marbles covered with chips by ⅔ or more was visually counted.
Compound (I) (0.1 mg/kg) and various antidepressants (fluoxetine (10 mg/kg), paroxetine (10 mg/kg), sertraline (10 mg/kg), fluvoxamine (15 mg/kg)) were suspended in 5% gum arable-distilled water, and diazepam (antianxiety drug, 1 mg/kg) was diluted with physiological saline and used. All drugs and vehicles thereof were orally administered 30 min before the start of the test.

The mark [3] stands for this setting: Compound (I) 0.003 mg/kg i.p. 15 min before test, duloxetine 20 mg/kg p.o. 30 min before, n=7.
Where [4] appears, read: Compound (I) 0.003 mg/kg i.p. 15 min before test, milnacipran 30 mg/kg p.o. 60 min before, n=10.
Where [5] appears, read: Compound (I) 0.001 mg/kg i.p. 15 min before test, venlafaxine 15 mg/kg p.o. 60 min before, n=10.
Setting [6] is: Compound (I) 0.003 mg/kg i.p. 15 min before test, desvenlafaxin 20 mg/kg p.o. 30 min before, n=8.
Where [7] appears, read: Compound (I) 0.003 mg/kg i.p. 15 min before test, fluvoxamine 75 mg/kg p.o. 60 min before, n=10.
Where [8] appears, read: Compound (I) 0.003 mg/kg i.p. 15 min before test, sertraline 15 mg/kg p.o. 60 min before, n=7.
Setting [9] is: Compound (I) 0.003 mg/kg i.p. 15 min before test, escitalopram 60 mg/kg p.o. 60 min before, n=10.
Setting [10] is: Compound (I) 0.003 mg/kg i.p. 15 min before test, fluoxetine 75 mg/kg p.o. 60 min before, n=10.
Where [11] appears, read: Compound (I) 0.003 mg/kg i.p. 15 min before test, paroxetine 10 mg/kg p.o. 60 min before, n=10.

For `CNCC[C@H](Oc1cccc2ccccc12)c1cccs1` [duloxetine], the “immobility time relative to control (%)” value in assay [1] (setting [3]) is listed as 95%.
Take `CCN(CC)C(=O)C1(c2ccccc2)CC1CN` (centres unmarked) [milnacipran]: the “immobility time relative to control (%)” value in assay [1] (setting [4]) is given as 97%.
Take `COc1ccc(C(CN(C)C)C2(O)CCCCC2)cc1` (centres unmarked) [venlafaxine]: the “immobility time relative to control (%)” value in assay [1] (setting [5]) is given as 96%.
With `CN(C)CC(c1ccc(O)cc1)C1(O)CCCCC1` (centres unmarked) [desvenlafaxin, desvenlafaxine], in assay [1] (setting [6]), the “immobility time relative to control (%)” value is given as 95%.
In the case of `COCCCC/C(=N\OCCN)c1ccc(C(F)(F)F)cc1` [fluvoxamine], the “immobility time relative to control (%)” value in assay [1] (setting [7]) is on record as 95%. In assay [2] (fluvoxamine 15 mg/kg p.o.), the “number of marbles buried (average ± standard error)” value (shortened to “number … (average ± standard error)”) is 13.5 ± 2.1 and the “number of marbles buried relative to control (%)” value is 83%.
Regarding `CN[C@H]1CC[C@@H](c2ccc(Cl)c(Cl)c2)c2ccccc21` [sertraline], in assay [1] (setting [8]), the “immobility time relative to control (%)” value is on record as 91%. Moreover, in assay [2] (sertraline 10 mg/kg p.o.), the “number … (average ± standard error)” value stood at 7.5 ± 0.7 and the “number of marbles buried relative to control (%)” value is 56%.
On to `O=c1ccc2ccc(OCCCCN3CCN(c4cccc5sccc45)CC3)cc2[nH]1` [Compound (I), 7-[4-(4-benzo[b]thiophen-4-yl-piperazin-1-yl)butoxy]-1H-quinolin-2-one], for which the “immobility time relative to control (%)” value in assay [1] (setting [5]) came out at 99%; in assay [1] (setting [6]) it was 96%; in assay [1] (setting [3]), 98%; in assay [1] (setting [9]) it was 96%; in assay [1] (setting [10]), 100%; in assay [1] (setting [7]), 100%. Besides, the entries for the “immobility time relative to control (%)” value in assay [1] (setting [4]), in assay [1] (setting [11]) and in assay [1] (setting [8]) were 101%, 98% and 87%, respectively. The “number … (average ± standard error)” value in assay [2] (diazepam 1 mg/kg p.o.) is recorded as 14.4 ± 2.0; in assay [2] (fluoxetine 10 mg/kg p.o.), 14.4 ± 2.0; in assay [2] (fluvoxamine 15 mg/kg p.o.), 14.0 ± 1.6; in assay [2] (paroxetine 10 mg/kg p.o.) it was 11.3 ± 1.5; in assay [2] (sertraline 10 mg/kg p.o.), 12.2 ± 2.2. In addition, the “number of marbles buried relative to control (%)” value was 96% in assay [2] (diazepam 1 mg/kg p.o.); 82% in assay [2] (fluoxetine 10 mg/kg p.o.); 86% in assay [2] (fluvoxamine 15 mg/kg p.o.); 90% in assay [2] (paroxetine 10 mg/kg p.o.); 91% in assay [2] (sertraline 10 mg/kg p.o.).
On to `Fc1ccc([C@@H]2CCNC[C@H]2COc2ccc3c(c2)OCO3)cc1` [paroxetine], for which the “immobility time relative to control (%)” value in assay [1] (setting [11]) came to 98%. For the same compound, in assay [2] (paroxetine 10 mg/kg p.o.), the “number … (average ± standard error)” value amounted to 8.5 ± 2.0 and the “number of marbles buried relative to control (%)” value is given as 60%.
Regarding `CN(C)CCC[C@@]1(c2ccc(F)cc2)OCc2cc(C#N)ccc21` [escitalopram], the “immobility time relative to control (%)” value in assay [1] (setting [9]) is recorded as 95%.
Take `CN1C(=O)CN=C(c2ccccc2)c2cc(Cl)ccc21` [diazepam]: in assay [2] (diazepam 1 mg/kg p.o.), the “number … (average ± standard error)” value worked out at 12.8 ± 2.0 and the “number of marbles buried relative to control (%)” value is reported as 85%.
With `CNCCC(Oc1ccc(C(F)(F)F)cc1)c1ccccc1` (centres unmarked) [fluoxetine], in assay [1] (setting [10]), the “immobility time relative to control (%)” value came to 92%. In assay [2] (fluoxetine 10 mg/kg p.o.), the “number … (average ± standard error)” value is recorded as 17.3 ± 1.5 and the “number of marbles buried relative to control (%)” value was determined as 98%.

The values are drawn from patent US20180042923A1, “COMBINATIONS COMPRISING BREXPIPRAZOLE OR A SALT THEREOF AND A SECOND DRUG FOR USE IN THE TREATMENT OF A CNS DISORDER” (priority 2011, published 2018).
